Drawing on patent publication US11084800B2 (Achillion Pharmaceuticals, Inc., priority 2017, dated 2021), this text covers IC50 for 8 molecules.

This experiment has as its target Human Factor D (Homo sapiens (Human), UniProt P00746). Put plainly: Human Factor D Assay. It counts as biochemical. As to conditions: Factor D inhibition, assay of Example 10; read-out: IC5 (Stars). Put shortly: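 Serum-purified Factor D (80 nM final) preincubated 5 min at room temperature with compound in 50 mM Tris, 1 M NaCl, pH 7.5. Z-L-Lys-SBz and DTNB added at 100 μM each; A405 followed every 30 s for 30 min. IC50 from nonlinear regression of rates versus concentration.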

The structures appear in SMILES notation. pIC50: −log10 of the molar value. Some results are limits rather than exact numbers.

Chain of Human Factor D (P00746 26-253): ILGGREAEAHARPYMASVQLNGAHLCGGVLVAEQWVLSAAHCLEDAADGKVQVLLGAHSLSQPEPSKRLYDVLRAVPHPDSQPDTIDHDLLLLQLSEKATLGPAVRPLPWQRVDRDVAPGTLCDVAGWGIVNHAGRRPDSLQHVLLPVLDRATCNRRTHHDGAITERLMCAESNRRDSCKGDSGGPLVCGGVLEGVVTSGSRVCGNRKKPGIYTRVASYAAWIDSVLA

In the case of `CC(=O)c1nn(CC(=O)N2[C@H](C(=O)Nc3nc(Br)ccc3CN3CC4CCC3C4)C[C@@]3(C)C[C@@H]23)c2ccc(-c3cnc(C)nc3)cc12` (stereo partly drawn) [Compound 308, (1R,3S,5R)-N-(3-(2-azabicyclo[2.2.1]heptan-2-ylmethyl)-6-bromopyridin-2-yl)-2-(2-(3-acetyl-5-(2-methylpyrimidin-5-yl)-1H-indazol-1-yl)acetyl)-5-methyl-2-azabicyclo[3.1.0]hexane-3-carboxamide], the pIC50 was > 6.00.
Regarding `CC(=O)c1nn(CC(=O)N2[C@H](C(=O)Nc3nc(Br)ccc3C)C[C@@]3(c4cn(C(C)C)nn4)C[C@@H]23)c2ccc(-c3cnc(C)nc3)cc12` [Compound 309, (1R,3S,5S)-2-(2-(3-acetyl-5-(2-methylpyrimidin-5-yl)-1H-indazol-1-yl)acetyl)-N-(6-bromo-3-methylpyridin-2-yl)-5-(1-isopropyl-1H-1,2,3-triazol-4-yl)-2-azabicyclo[3.1.0]hexane-3-carboxamide], the pIC50 was > 6.00.
Under `CC(=O)c1nn(CC(=O)N2[C@H](C(=O)Nc3nc(Br)ccc3C)C[C@@]3(Cn4cccn4)C[C@@H]23)c2ccc(-c3cnc(C)nc3)cc12` [Compound 310, (1R,3S,5R)-5-((1H-Pyrazol-1-yl)methyl)-2-(2-(3-acetyl-5-(2-methylpyrimidin-5-yl)-1H-indazol-1-yl)acetyl)-N-(6-bromo-3-methylpyridin-2-yl)-2-azabicyclo[3.1.0]hexane-3-carboxamide] stands > 6.00.
Then `CC(=O)c1nn(CC(=O)N2[C@H](C(=O)Nc3nc(Br)ccc3C)C[C@@]3(Cn4ccc(C(C)(C)C)n4)C[C@@H]23)c2ccc(-c3cnc(C)nc3)cc12` [Compound 311, (1R,3S,5R)-2-(2-(3-acetyl-5-(2-methylpyrimidin-5-yl)-1H-indazol-1-yl)acetyl)-N-(6-bromo-3-methylpyridin-2-yl)-5-((3-(tert-butyl)-1H-pyrazol-1-yl)methyl)-2-azabicyclo[3.1.0]hexane-3-carboxamide], with > 6.00.
Then `CC(=O)c1nn(CC(=O)N2[C@H](C(=O)Nc3nc(Br)ccc3C)C[C@@]3(Cn4cncn4)C[C@@H]23)c2ccc(-c3cnc(C)nc3)cc12` [Compound 312, (1R,3S,5R)-5-((1H-1,2,4-triazol-1-yl)methyl)-2-(2-(3-acetyl-5-(2-methylpyrimidin-5-yl)-1H-indazol-1-yl)acetyl)-N-(6-bromo-3-methylpyridin-2-yl)-2-azabicyclo[3.1.0]hexane-3-carboxamide], with > 6.00.
Turning to `CC(=O)c1nn(CC(=O)N2[C@H](C(=O)Nc3nc(Br)ccc3C)C[C@@]3(Cn4cncn4)C[C@@H]23)c2cnc(-c3cnc(C)nc3)cc12` [Compound 313, (1R,3S,5R)-5-((1H-1,2,4-triazol-1-yl)methyl)-2-(2-(3-acetyl-5-(2-methylpyrimidin-5-yl)-1H-pyrazolo[3,4-c]pyridin-1-yl)acetyl)-N-(6-bromo-3-methylpyridin-2-yl)-2-azabicyclo[3.1.0]hexane-3-carboxamide], the pIC50 was > 6.00.
Under `CC(=O)c1nn(CC(=O)N2[C@H](C(=O)Nc3nc(Br)ccc3C)C[C@@]3(Cn4cnc(C)c4)C[C@@H]23)c2ccc(-c3cnc(C)nc3)cc12` [Compound 314, (1R,3S,5R)-2-(2-(3-Acetyl-5-(2-methylpyrimidin-5-yl)-1H-indazol-1-yl)acetyl)-N-(6-bromo-3-methylpyridin-2-yl)-5-((4-methyl-1H-imidazol-1-yl)methyl)-2-azabicyclo[3.1.0]hexane-3-carboxamide] stands > 6.00; under `CC(=O)c1nn(CC(=O)N2[C@@H](C(=O)Nc3nc(Br)ccc3C)C[C@@]3(Cn4cnc(C)c4)C[C@@H]23)c2ccc(-c3cnc(C)nc3)cc12` [Compound 315, (1R,3R,5R)-2-(2-(3-Acetyl-5-(2-methylpyrimidin-5-yl)-1H-indazol-1-yl)acetyl)-N-(6-bromo-3-methylpyridin-2-yl)-5-((4-methyl-1H-imidazol-1-yl)methyl)-2-azabicyclo[3.1.0]hexane-3-carboxamide], 5.00 to 6.00.
